Results published in patent US12168653B2, “Sulfonamide derivates as NLRP3 inhibitors” (Inflazome Limited, priority 2018, dated 2024).
Structures can show the parent of a compound that is named as a salt.

tested on: NLRP3; assay: THP-1 cells pyroptosis assay (LPS/nigericin, resazurin read-out); assay type: cell-based; conditions: Homo sapiens, THP-1, read-out: THP IC50
Procedure: THP-1 cells (ATCC #TIB-202) were grown in RPMI containing L-glutamine (Gibco #11835) supplemented with 1 mM sodium pyruvate (Sigma #S8636) and penicillin (100 units/ml)/streptomycin (0.1 mg/ml) (Sigma #P4333) in 10% Fetal Bovine Serum (FBS) (Sigma #F0804). The cells were routinely passaged and grown to confluency (˜10^6 cells/ml). On the day of the experiment, THP-1 cells were harvested and resuspended into RPMI medium (without FBS). The cells were then counted and viability (>90%) checked by Trypan blue (Sigma #T8154). Appropriate dilutions were made to give a concentration of 625,000 cells/ml. To this diluted cell solution was added LPS (Sigma #L4524) to give a 1 μg/ml Final Assay Concentration (FAC). 40 μl of the final preparation was aliquoted into each well of a 96-well plate. The plate thus prepared was used for compound screening.
The following method step-by-step assay was followed for compound screening. • 1. Seed THP-1 cells (25,000 cells/well) containing 1.0 μg/ml LPS in 40 μl of RPMI medium (without FBS) in 96-well, black walled, clear bottom cell culture plates coated with poly-D-lysine (VWR #734-0317) • 2. Add 5 μl compound (8 points half-log dilution, with 10 μM top dose) or vehicle (DMSO 0.1% FAC) to the appropriate wells • 3. Incubate for 3 hrs at 37° C., 5% CO2 • 4. Add 5 μl nigericin (Sigma #N7143) (FAC 5 μM) to all wells • 5. Incubate for 1 hr at 37° C., 5% CO2 • 6. At the end of the incubation period, spin plates at 300×g for 3 mins and remove supernatant • 7. Then add 50 μl of resazurin (Sigma #R7017) (FAC 100 μM resazurin in RPMI medium without FBS) and incubate plates for a further 1-2 hrs at 37° C. and 5% CO2 • 8. Plates were read in an Envision reader at Ex 560 nm and Em 590 nm • 9. IC50 data is fitted to a non-linear regression equation (log inhibitor vs response-variable slope 4-parameters) 96-Well Plate Map

SMILES | IC50
COc1cc(-c2ccc3c(c2CC(=O)NS(=O)(=O)N(C)C2CCN(C)C2)CCC3)ccn1 (centres unmarked) [Example 1, 2-(5-(2-Methoxypyridin-4-yl)-2,3-dihydro-1H-inden-4-yl)-N—(N-methyl-N-(1-methylpyrrolidin-3-yl)sulfamoyl)acetamide, Potassium Salt] | < 5 µM
CCN(CC)CCCS(=O)(=O)NC(=O)Cc1c(-c2ccnc(OC)c2)cc(F)cc1C(C)C [Example 3, N-((3-(Diethylamino)propyl)sulfonyl)-2-(4-fluoro-2-isopropyl-6-(2-methoxypyridin-4-yl)phenyl)acetamide, Potassium Salt] | < 5 µM
COc1cc(-c2cc(F)cc(C(C)C)c2CC(=O)NS(=O)(=O)C[C@]23CCC(CC2=O)C3(C)C)ccn1 [Example 7, N-((((1S)-7,7-Dimethyl-2-oxobicyclo[2.2.1]heptan-1-yl)methyl)sulfonyl)-2-(4-fluoro-2-isopropyl-6-(2-methoxypyridin-4-yl)phenyl)acetamide, Potassium Salt] | < 10 µM
COc1cc(-c2cc(F)cc(C(C)C)c2CC(=O)NS(=O)(=O)N(C)C2CCN(C)C2)ccn1 (centres unmarked) [Example 8, 2-(4-Fluoro-2-isopropyl-6-(2-methoxypyridin-4-yl)phenyl)-N—(N-methyl-N-(1-methylpyrrolidin-3-yl)sulfamoyl)acetamide, Potassium Salt] | < 5 µM
COc1cc(-c2cc(F)cc(C(C)C)c2CC(=O)NS(=O)(=O)C[C@@]23CC[C@@H](C[C@H]2O)C3(C)C)ccn1 [Example 9, 2-(4-Fluoro-2-isopropyl-6-(2-methoxypyridin-4-yl)phenyl)-N-((((1R,2R,4S)-2-hydroxy-7,7-dimethylbicyclo[2.2.1]heptan-1-yl)methyl)sulfonyl)acetamide, Potassium Salt] | < 5 µM
COc1cc(-c2cc(F)cc(C(C)C)c2CC(=O)NS(=O)(=O)CCCC(C)(C)O)ccn1 [Example 10, 2-(4-Fluoro-2-isopropyl-6-(2-methoxypyridin-4-yl)phenyl)-N-((4-hydroxy-4-methylpentyl)sulfonyl)acetamide, Potassium Salt] | < 10 µM

same assay, conditions: Homo sapiens; THP-1 cells, 1 μg/ml LPS, 3 hrs compound, 5 μM nigericin 1 hr; NLRP3 inhibitory activity; read-out: THP IC50

SMILES | IC50
CCN(CC)CCCS(=O)(=O)NC(=O)Cc1c(-c2ccnc(OC)c2)ccc2c1CCC2 [Example 2, N-((3-(Diethylamino)propyl)sulfonyl)-2-(5-(2-methoxypyridin-4-yl)-2,3-dihydro-1H-inden-4-yl)acetamide] | < 10 µM
CCN(CC)CCCS(=O)(=O)NC(=O)Cc1c2c(cc3c1CCC3)CCC2 [Example 4, N-((3-(Diethylamino)propyl)sulfonyl)-2-(1,2,3,5,6,7-hexahydro-s-indacen-4-yl)acetamide] | < 10 µM
CC(C)c1cc(F)cc(C(C)C)c1CC(=O)NS(=O)(=O)N(C)C1CCN(C)C1 (centres unmarked) [Example 5, 2-(4-Fluoro-2,6-diisopropylphenyl)-N—(N-methyl-N-(1-methylpyrrolidin-3-yl)sulfamoyl)acetamide] | < 5 µM
CCN(CC)CCCS(=O)(=O)NC(=O)Cc1c(C(C)C)cc(F)cc1C(C)C [Example 6, N-((3-(Diethylamino)propyl)sulfonyl)-2-(4-fluoro-2,6-diisopropylphenyl)acetamide] | < 10 µM
COc1cc(-c2cc(F)cc(C(C)C)c2CC(=O)NS(=O)(=O)CC2(C#N)CCCCC2)ccn1 [Example 11] | < 1 µM
